According to PubChem BioAssay AID330 (DTP/NCI, 2004):
Several values for one entry are separate records, joined by “and”; a condition that tells them apart may be missing. Equal values may be shown once. Inconclusive results and toxic doses are left out. How the source made its calls: active means survival T/C of 150% or more; inactive means T/C below 125% in these data.

Tested on: P388 leukemia ip, CD2F1 mice, survival T/C
Assay: NCI In Vivo Anticancer Drug Screen. Data for tumor model P388 Leukemia (intraperitoneal) in CD2F1 (CDF1) mice
Settings: endpoint: median survival time, higher = longer survival
In short: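 Mice carrying the transplanted tumor received test compound or vehicle. Survival was recorded in each group, and the value is the treated-group measurement divided by that of the vehicle-treated control group.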

[1] = dose: 100.0 mg/kg/injection, schedule: Q04DX003 (ip), vehicle: saline with Tween-80
[2] = dose: 50.0 mg/kg/injection, schedule: Q01DX005 (ip), vehicle: saline with Tween-80
[3] = dose: 100.0 mg/kg/injection, schedule: Q01DX005 (ip), vehicle: saline with Tween-80
[4] = dose: 200.0 mg/kg/injection, schedule: Q01DX005 (ip), vehicle: saline with Tween-80
[5] = dose: 12.5 mg/kg/injection, schedule: Q01DX009 (ip), vehicle: Klucel (hydroxypropylcellulose) (HPC)
[6] = dose: 25.0 mg/kg/injection, schedule: Q01DX009 (ip), vehicle: Klucel (hydroxypropylcellulose) (HPC)
[7] = dose: 50.0 mg/kg/injection, schedule: Q01DX009 (ip), vehicle: Klucel (hydroxypropylcellulose) (HPC)
[8] = dose: 50.0 mg/kg/injection, schedule: Q01DX005 (ip), vehicle: saline
[9] = dose: 100.0 mg/kg/injection, schedule: Q01DX005 (ip), vehicle: saline

Measured: T/C

CCN(CCP(c1ccccc1)c1ccccc1)CCP(c1ccccc1)c1ccccc1
inactive: dose: 0.75 mg/kg/injection, schedule: Q04DX003 (ip), vehicle: saline with Tween-80 109 % of control | dose: 1.5 mg/kg/injection, schedule: Q04DX003 (ip), vehicle: saline with Tween-80 109 % of control | dose: 3.0 mg/kg/injection, schedule: Q04DX003 (ip), vehicle: saline with Tween-80 118 % of control | dose: 3.13 mg/kg/injection, schedule: Q04DX003 (ip), vehicle: saline with Tween-80 118 % of control | dose: 6.25 mg/kg/injection, schedule: Q04DX003 (ip), vehicle: saline with Tween-80 118 % of control | [1] 100 % of control and 87 % of control

OCCN(Cc1ccccn1)Cc1ccccn1
inactive: dose: 7.5 mg/kg/injection, schedule: Q01DX005 (ip), vehicle: saline 99 % of control | dose: 15.0 mg/kg/injection, schedule: Q01DX005 (ip), vehicle: saline 106 % of control

O=C1C=CC(=O)O1 (tested in a mixture with another compound)
inactive: dose: 6.25 mg/kg/injection, schedule: Q01DX009 (ip), vehicle: saline 117 % of control | dose: 12.5 mg/kg/injection, schedule: Q01DX009 (ip), vehicle: saline 100 % of control | dose: 25.0 mg/kg/injection, schedule: Q01DX009 (ip), vehicle: saline 102 % of control and 108 % of control and 89 % of control | dose: 25.0 mg/kg/injection, schedule: Q04DX003 (ip), vehicle: saline 120 % of control | dose: 50.0 mg/kg/injection, schedule: Q01DX009 (ip), vehicle: saline 108 % of control [middle of 4 runs] | dose: 100.0 mg/kg/injection, schedule: Q01DX009 (ip), vehicle: saline 100 % of control and 108 % of control and 109 % of control | dose: 150.0 mg/kg/injection, schedule: Q01DX009 (ip), vehicle: saline 120 % of control | dose: 200.0 mg/kg/injection, schedule: Q01DX009 (ip), vehicle: saline 108 % of control and 115 % of control and 120 % of control

COc1cc(CC2C(Cc3ccc4c(c3)OCO4)COC2CO)cc(OC)c1OC (stereo not drawn)
inactive: dose: 6.25 mg/kg/injection, schedule: Q04DX002 (ip), vehicle: acetone 95 % of control | dose: 12.5 mg/kg/injection, schedule: Q04DX002 (ip), vehicle: acetone 102 % of control | dose: 25.0 mg/kg/injection, schedule: Q04DX002 (ip), vehicle: acetone 98 % of control

COC(=O)c1cccc(OC)c1OC
inactive: dose: 100.0 mg/kg/injection, schedule: Q01DX009 (ip), vehicle: saline with Tween-80 109 % of control | dose: 200.0 mg/kg/injection, schedule: Q01DX009 (ip), vehicle: saline with Tween-80 100 % of control | dose: 400.0 mg/kg/injection, schedule: Q01DX009 (ip), vehicle: saline with Tween-80 109 % of control

COc1cc2c(N)nc(N3CCN(C(=O)OCC(C)(C)O)CC3)nc2c(OC)c1OC
inactive: dose: 50.0 mg/kg/injection, schedule: Q01DX005 (ip), vehicle: suspension in saline 95 % of control | dose: 100.0 mg/kg/injection, schedule: Q01DX005 (ip), vehicle: suspension in saline 100 % of control | dose: 200.0 mg/kg/injection, schedule: Q01DX005 (ip), vehicle: suspension in saline 113 % of control

CC(C)(C)S.[Ge]
inactive: dose: 7.5 mg/kg/injection, schedule: Q01DX009 (ip), vehicle: saline with Tween-80 106 % of control | dose: 15.0 mg/kg/injection, schedule: Q01DX009 (ip), vehicle: saline with Tween-80 107 % of control | dose: 30.0 mg/kg/injection, schedule: Q01DX009 (ip), vehicle: saline with Tween-80 103 % of control

Cc1c(C=O)cc(-c2ccccc2)n1C
inactive: [2] 89 % of control | [3] 89 % of control | [4] 91 % of control

CCOC(=O)C(CNC(=O)c1ccccc1)(NC(C)=O)C(=O)OCC
inactive: dose: 12.5 mg/kg/injection, schedule: Q01DX009 (ip), vehicle: other 121 % of control | dose: 25.0 mg/kg/injection, schedule: Q01DX009 (ip), vehicle: other 121 % of control | dose: 50.0 mg/kg/injection, schedule: Q01DX009 (ip), vehicle: other 112 % of control | dose: 100.0 mg/kg/injection, schedule: Q01DX009 (ip), vehicle: other 97 % of control | dose: 200.0 mg/kg/injection, schedule: Q01DX009 (ip), vehicle: other 103 % of control

CCOC(=O)Nc1cc(NC/C(=N/O)c2ccc(C(F)(F)F)cc2)c([N+](=O)[O-])c(N)n1
inactive: dose: 50.0 mg/kg/injection, schedule: Q01DX001 (ip), vehicle: saline with Tween-80 94 % of control | dose: 100.0 mg/kg/injection, schedule: Q01DX001 (ip), vehicle: saline with Tween-80 96 % of control

O=C1Nc2ccc(Cl)cc2C(c2ccccc2)=NC1O (stereo not drawn)
inactive: [5] 97 % of control | [6] 97 % of control | [7] 108 % of control | dose: 100.0 mg/kg/injection, schedule: Q01DX009 (ip), vehicle: Klucel (hydroxypropylcellulose) (HPC) 89 % of control | dose: 200.0 mg/kg/injection, schedule: Q01DX009 (ip), vehicle: Klucel (hydroxypropylcellulose) (HPC) 111 % of control | dose: 400.0 mg/kg/injection, schedule: Q01DX009 (ip), vehicle: Klucel (hydroxypropylcellulose) (HPC) 99 % of control

N#C/C(=N\NC(=O)c1cccc(C(=O)N/N=C(\C#N)c2ccccc2Cl)n1)c1ccccc1Cl
inactive: dose: 1.5 mg/kg/injection, schedule: Q01DX005 (ip), vehicle: saline with Tween-80 92 % of control | dose: 3.0 mg/kg/injection, schedule: Q01DX005 (ip), vehicle: saline with Tween-80 94 % of control | dose: 6.0 mg/kg/injection, schedule: Q01DX005 (ip), vehicle: saline with Tween-80 94 % of control | dose: 6.25 mg/kg/injection, schedule: Q01DX005 (ip), vehicle: saline with Tween-80 91 % of control | [4] 100 % of control

Cc1c(Cl)c(O)cc2oc3cc(O)cc(O)c3c(=O)c12
inactive: dose: 10.0 mg/kg/injection, schedule: Q04DX003 (ip), vehicle: Klucel (hydroxypropylcellulose) (HPC) 105 % of control | dose: 20.0 mg/kg/injection, schedule: Q04DX003 (ip), vehicle: Klucel (hydroxypropylcellulose) (HPC) 102 % of control | dose: 40.0 mg/kg/injection, schedule: Q04DX003 (ip), vehicle: Klucel (hydroxypropylcellulose) (HPC) 105 % of control

ClC(=Nc1ccccc1)c1ccccn1
inactive: [5] 101 % of control | [6] 101 % of control | [7] 96 % of control

CCC(C)C(NC(=O)OCc1ccccc1)C(=O)ON1C(=O)CCC1=O (stereo not drawn)
inactive: dose: 66.0 mg/kg/injection, schedule: Q04DX003 (ip), vehicle: saline with Tween-80 100 % of control | [1] 104 % of control | dose: 150.0 mg/kg/injection, schedule: Q04DX003 (ip), vehicle: saline with Tween-80 109 % of control

NCCCN1CCCC1
inactive: [8] 95 % of control | [9] 105 % of control

O=S1(=O)N=C(N2CCOCC2)c2ccccc21
inactive: [2] 101 % of control | [3] 101 % of control | [4] 99 % of control

CC(C)B1N(C(C)(C)C)B(C(C)C)N(C(C)(C)C)B(C(C)C)N1C(C)(C)C
inactive: dose: 60.0 mg/kg/injection, schedule: Q01DX005 (ip), vehicle: saline with Tween-80 93 % of control | dose: 120.0 mg/kg/injection, schedule: Q01DX005 (ip), vehicle: saline with Tween-80 101 % of control | dose: 240.0 mg/kg/injection, schedule: Q01DX005 (ip), vehicle: saline with Tween-80 104 % of control

O=C(Cn1ccnc1)Nc1ccc(Cl)cc1C(=O)c1ccccc1
inactive: [2] 95 % of control | [3] 92 % of control

CCOC(CN)(OCC)c1ccncc1
inactive: [8] 102 % of control | [9] 101 % of control | dose: 200.0 mg/kg/injection, schedule: Q01DX005 (ip), vehicle: saline 101 % of control

CCOc1ccc(/C=C/S(=O)(=O)/C=C\c2ccccc2)c(OC)c1
inactive: [2] 98 % of control | [3] 92 % of control | [4] 87 % of control

CCCCCCCCCc1cccc(N2C(N)=NC(N)=NC2(C)C)c1
inactive: dose: 7.5 mg/kg/injection, schedule: Q01DX005 (ip), vehicle: saline with Tween-80 106 % of control

Cn1cc(F)c(=O)n(C)c1=O
inactive: dose: 30.0 mg/kg/injection, schedule: Q04DX002 (ip), vehicle: saline 96 % of control | dose: 60.0 mg/kg/injection, schedule: Q04DX002 (ip), vehicle: saline 100 % of control | dose: 120.0 mg/kg/injection, schedule: Q04DX002 (ip), vehicle: saline 98 % of control | dose: 125.0 mg/kg/injection, schedule: Q04DX002 (ip), vehicle: saline 96 % of control | dose: 240.0 mg/kg/injection, schedule: Q04DX002 (ip), vehicle: saline 99 % of control | dose: 250.0 mg/kg/injection, schedule: Q04DX002 (ip), vehicle: saline 105 % of control

Nn1cnc2c(nnn2Cc2ccccc2)c1=O
inactive: dose: 100.0 mg/kg/injection, schedule: Q04DX002 (ip), vehicle: saline with Tween-80 104 % of control | dose: 200.0 mg/kg/injection, schedule: Q04DX002 (ip), vehicle: saline with Tween-80 100 % of control
